Measured values published in paper PMC7482817 (Theranostics, 2020).

Legend:
E. coli B2 (mcr-1) [1] = experiment: Broth microdilution MIC and checkerboard assay; type: cell-based, Escherichia coli; details: for MIC of antibiotic in the absence of melatonin: antibiotic alone, MHB; for Potentiation (fold): degree of colistin potentiation in the presence of sub-MIC of melatonin and its analogues: colistin plus sub-MIC of the analogue
E. coli B2 (mcr-1) [2] = experiment: Time-dependent killing; type: cell-based, Escherichia coli; details: melatonin 1 mg/mL or colistin 2 μg/mL alone, 24 h
Protocol: Overnight E. coli B2 were diluted 1/1,000 in MHB, and incubated for 4 h (exponential phase) or 8 h (stationary phase) at 37 °C. […] At intervals, 100 μL aliquots were removed, centrifuged and resuspended in 100 μL sterile PBS. Subsequently, ten-fold serially diluted suspensions were plated on MHA plates and incubated overnight at 37 °C. Bacterial colonies were counted and the primary CFUs/mL was calculated.

CHO cells = experiment: Cytotoxicity, WST-1 assay; type: cell-based, Chinese Hamster; details: colistin 0 to 128 μg/mL with melatonin 0 to 1,000 μg/mL, 24 h
Protocol: (§3) Cytotoxicity on CHO and HEK293T cells was determined using the water-soluble tetrazolium salt-1 (WST-1, Roche, Switzerland) assay [35].

HEK293T cells = experiment: Cytotoxicity, WST-1 assay; type: cell-based, Human; details: colistin 0 to 128 μg/mL with melatonin 0 to 1,000 μg/mL, 24 h
Protocol: as §3

E. coli B2 (mcr-1) [3] = experiment: Mouse peritonitis-sepsis infection model; type: in vivo, BALB/c mice; details: single i.p. dose 1 h post-infection: colistin 10 mg/kg, melatonin 50 mg/kg, or combinations 5 + 50, 10 + 20, 10 + 50 mg/kg; 7 days; n = 8 or 9
Protocol: 6-8-week-old female BALB/c mice were obtained from Comparative Medicine Centre of Yangzhou University (Jiangsu, China). Mice were adapted for one week prior to infection. Mouse studies were performed in accordance with the relevant guidelines and regulations (ID: SCXK-2017-0007). The laboratory animal usage license number is SCXK-2017-0044, certified by Jiangsu Association for Science and Technology.
Female BALB/c mice (n = 8 or 9 per group) were intraperitoneally infected with a dose of 3.0 × 10^8 CFUs E. coli B2 suspension. […] Survival rates of mice were recorded for 7 days.

E. coli B2 (mcr-1) [4] = experiment: Membrane depolarization (DiSC3(5)); type: cell-based, Escherichia coli; details: melatonin 0 to 1,000 μg/mL alone, or 500 μg/mL added to colistin; 1 h
Protocol: (§1) Pretreatments of biochemical assays were performed using similar protocols as follows. Overnight E. coli B2 were washed, suspended in 5 mM HEPES (pH 7.0, plus 5 mM glucose) with an OD600 of 0.5, and incubated with fluorescent dyes for 30 min. […] After incubation at 37 °C for 1 hour, fluorescence intensity or absorbance or luminescence was measured by an Infinite M200 Microplate reader (Tecan).
3, 3-dipropylthiadicarbocyanine iodide (DiSC3(5), 0.5 μM) was applied to determine the membrane potential. Dissipated membrane potential of E. coli B2 was measured with the excitation wavelength of 622 nm and emission wavelength of 670 nm.

E. coli B2 [5] = experiment: Total ROS (DCFH-DA); type: cell-based, Escherichia coli; details: 1 h, colistin with or without melatonin 500 μg/mL, or melatonin alone
Protocol: as §1
(§2) 2′,7′-dichlorodihydrofluorescein diacetate (DCFH-DA, 10 μM) was applied to monitor levels of ROS in E. coli B2 [38], following the manufacturer's instruction (Beyotime). Fluorescence intensity was measured with the excitation wavelength of 488 nm and emission wavelength of 525 nm. […] After incubation for one hour, the absorbance of lysis buffer at 570 nm was measured.

E. coli B2 [6] = experiment: H2O2 production (Hydrogen Peroxide Assay Kit); type: cell-based, Escherichia coli; details: melatonin in single or combination treatment with colistin; 1 h
Protocol: as §2

[7] = tested on: mcr-1 expression in E. coli B2; type: cell-based, Escherichia coli; details: melatonin with or without colistin
E. coli = experiment: Colistin intracellular accumulation by LC-MS/MS; type: cell-based, Escherichia coli; details: co-incubation with varying doses of melatonin
resistant bacteria = experiment: Potentiation of colistin, summary over resistant strains; type: cell-based; details: in resistant bacteria
[8] = tested on: thirteen clinical colistin-resistant E. coli from elk
E. coli B2 [9] = experiment: Intracellular SOD activity; details: colistin with or without melatonin 500 μg/mL, or melatonin alone
E. coli MG1655 = experiment: Broth microdilution MIC and checkerboard assay; type: cell-based, Escherichia coli
E. coli ATCC 25922 = experiment: Broth microdilution MIC and checkerboard assay; type: cell-based, Escherichia coli
E. coli C3 = experiment: Broth microdilution MIC and checkerboard assay; type: cell-based, Escherichia coli
E. coli G6 = experiment: Broth microdilution MIC and checkerboard assay; type: cell-based, Escherichia coli
S. enterica ATCC 13076 = experiment: Broth microdilution MIC and checkerboard assay; type: cell-based
E. coli G92 (mcr-1) = experiment: Broth microdilution MIC and checkerboard assay; type: cell-based, Escherichia coli
E. coli CP131 (mcr-3) = experiment: Broth microdilution MIC and checkerboard assay; type: cell-based, Escherichia coli
[10] = tested on: K. pneumoniae D120 (mcr-8); experiment: Broth microdilution MIC and checkerboard assay; type: cell-based
E. coli MG1655 (ΔkatE) = experiment: Broth microdilution MIC and checkerboard assay
[11] = antibiotic plus sub-MIC melatonin
[12] = antibiotic with melatonin, checkerboard, two biological replicates
[13] = melatonin or analogue with colistin, checkerboard 8 × 8, 18 h, means of two biological replicates, synergy FIC index ≤ 0.5

## CC1(C)S[C@@H]2[C@H](NC(=O)[C@H](N)c3ccccc3)C(=O)N2[C@H]1C(=O)O [Ampicillin]
E. coli B2 (mcr-1) [1]; 18 h, 37 °C
  MIC of antibiotic in the absence of melatonin: 128 µg/mL
E. coli B2 (mcr-1) [1]; [11]
  MIC of antibiotic in the presence of sub-MIC of melatonin: 128 µg/mL
E. coli B2 (mcr-1) [1]; [12]
  FIC index: 2

## NCCc1c[nH]c2ccc(O)cc12 [Analogue 1, Serotonin]
E. coli B2 (mcr-1) [1]
  Potentiation (fold): degree of colistin potentiation in the presence of sub-MIC of melatonin and its analogues: 8 fold
E. coli B2 (mcr-1) [1]; [13]
  FIC index: 0.188

## NCCc1c[nH]c2ccccc12 [Analogue 2, Tryptamine]
E. coli B2 (mcr-1) [1]
  Potentiation (fold): degree of colistin potentiation in the presence of sub-MIC of melatonin and its analogues: 32 fold
E. coli B2 (mcr-1) [1]; [13]
  FIC index: 0.156

## N[C@@H](Cc1c[nH]c2ccc(O)cc12)C(=O)O [Analogue 3, 5-Hydroxy-L-tryptophan]
E. coli B2 (mcr-1) [1]
  Potentiation (fold): degree of colistin potentiation in the presence of sub-MIC of melatonin and its analogues: 2 fold
E. coli B2 (mcr-1) [1]; [13]
  FIC index: 1

## N[C@@H](Cc1c[nH]c2ccccc12)C(=O)O [Analogue 4, L-tryptophan]
E. coli B2 (mcr-1) [1]
  Potentiation (fold): degree of colistin potentiation in the presence of sub-MIC of melatonin and its analogues: 1 fold
E. coli B2 (mcr-1) [1]; [13]
  FIC index: 2

## CC(=O)NCCc1c[nH]c2ccc(O)cc12 [Analogue 5, N-acetyl-5-hydroxytryptamine]
E. coli B2 (mcr-1) [1]
  Potentiation (fold): degree of colistin potentiation in the presence of sub-MIC of melatonin and its analogues: 32 fold
E. coli B2 (mcr-1) [1]; [13]
  FIC index: 0.094

## COc1ccc2[nH]cc(CCN)c2c1 [Analogue 6, 5-Methoxytryptamine]
E. coli B2 (mcr-1) [1]
  Potentiation (fold): degree of colistin potentiation in the presence of sub-MIC of melatonin and its analogues: 32 fold
E. coli B2 (mcr-1) [1]; [13]
  FIC index: 0.156

## c1ccc2[nH]ccc2c1 [Analogue 7, Indole]
E. coli B2 (mcr-1) [1]
  Potentiation (fold): degree of colistin potentiation in the presence of sub-MIC of melatonin and its analogues: 8 fold

## NCCc1c[nH]cn1 [Analogue 8, Histamine]
E. coli B2 (mcr-1) [1]; [13]
  FIC index: >4

## C[C@H]1c2cccc(O)c2C(=O)C2=C(O)[C@]3(O)C(=O)C(C(N)=O)=C(O)[C@@H](N(C)C)[C@@H]3[C@@H](O)[C@@H]21 [Doxycycline]
E. coli B2 (mcr-1) [1]; 18 h, 37 °C
  MIC of antibiotic in the absence of melatonin: 32 µg/mL
E. coli B2 (mcr-1) [1]; [11]
  MIC of antibiotic in the presence of sub-MIC of melatonin: 4 µg/mL
  Potentiation (fold): degree of antibiotics potentiation in the presence of sub-MIC of melatonin: 8 fold
E. coli B2 (mcr-1) [1]; [12]
  FIC index: 0.250

## COc1ccc2[nH]cc(CCNC(C)=O)c2c1 [Melatonin, N-acetyl-5-methoxytryptamine]
E. coli B2 (mcr-1) [2]
  killing of exponentially growing or stationary E. coli B2 by monotreatment: neither melatonin nor colistin monotreatment killed
CHO cells
  effect of melatonin on cytotoxicity of colistin: slightly reduced the cytotoxicity of colistin
HEK293T cells
  effect of melatonin on cytotoxicity of colistin: slightly reduced the cytotoxicity of colistin
E. coli B2 (mcr-1) [3]
  survival of mice after lethal infection: did not prevent a lethal infection
E. coli B2 (mcr-1) [4]
  cytoplasmic membrane potential (DiSC3(5)): caused dissipation of the cytoplasmic membrane potential
E. coli B2 [5]
  total ROS level: had no direct effect on the total ROS level and SOD activity
E. coli B2 [6]
  production of H2O2: significantly promoted production of H2O2 in a dose-dependent manner
[7]
  mcr-1 expression: down-regulated in the presence of melatonin
E. coli
  intracellular colistin accumulation: enhanced colistin in cells in a dose-dependent manner
Resistant bacteria
  potentiation with colistin: 8 to 32 fold
[8]
  synergistic activity with colistin: synergistic activity was also evidenced
E. coli B2 [9]
  SOD activity: had no direct effect on the total ROS level and SOD activity

## C[C@@H](O)[C@H]1C(=O)N2C(C(=O)O)=C(S[C@@H]3CN[C@H](C(=O)N(C)C)C3)[C@H](C)[C@H]12 [Meropenem]
E. coli B2 (mcr-1) [1]; 18 h, 37 °C
  MIC of antibiotic in the absence of melatonin: 32 µg/mL
E. coli B2 (mcr-1) [1]; [11]
  MIC of antibiotic in the presence of sub-MIC of melatonin: 32 µg/mL
E. coli B2 (mcr-1) [1]; [12]
  FIC index: 2

## CO[C@H]1/C=C/O[C@@]2(C)Oc3c(C)c(O)c4c(O)c(c(/C=N/N5CCN(C)CC5)c(O)c4c3C2=O)NC(=O)/C(C)=C\C=C\[C@H](C)[C@H](O)[C@@H](C)[C@@H](O)[C@@H](C)[C@H](OC(C)=O)[C@@H]1C [Rifampicin]
E. coli B2 (mcr-1) [1]; 18 h, 37 °C
  MIC of antibiotic in the absence of melatonin: 128 µg/mL
E. coli B2 (mcr-1) [1]; [11]
  MIC of antibiotic in the presence of sub-MIC of melatonin: 128 µg/mL
E. coli B2 (mcr-1) [1]; [12]
  FIC index: 2

## Colistin
E. coli B2 (mcr-1) [1]; 18 h, 37 °C
  MIC of antibiotic in the absence of melatonin: 8 µg/mL
E. coli B2 (mcr-1) [1]; [11]
  MIC of antibiotic in the presence of sub-MIC of melatonin: 0.25 µg/mL
E. coli B2 (mcr-1) [1]; colistin alone, broth micro-dilution in MHB, 18 h, 37 °C
  MIC^a of colistin in the absence of melatonin and its analogues: 8 μg/mL
E. coli MG1655; E. coli MG1655
  MIC of colistin in the presence of sub-MIC of melatonin: 0.0156 µg/mL
E. coli MG1655; E. coli MG1655, MCR-negative
  MIC of colistin in the absence of melatonin: 0.0625 µg/mL
E. coli ATCC 25922; E. coli ATCC 25922
  MIC of colistin in the presence of sub-MIC of melatonin: 0.125 µg/mL
E. coli ATCC 25922; E. coli ATCC 25922, MCR-negative
  MIC of colistin in the absence of melatonin: 0.5 µg/mL
E. coli C3; E. coli C3
  MIC of colistin in the presence of sub-MIC of melatonin: 0.0312 µg/mL
E. coli C3; E. coli C3, MCR-negative
  MIC of colistin in the absence of melatonin: 0.125 µg/mL
E. coli G6; E. coli G6
  MIC of colistin in the presence of sub-MIC of melatonin: 0.0156 µg/mL
E. coli G6; E. coli G6, MCR-negative
  MIC of colistin in the absence of melatonin: 0.125 µg/mL
S. enterica ATCC 13076; S. enterica ATCC 13076
  MIC of colistin in the presence of sub-MIC of melatonin: 0.0156 µg/mL
S. enterica ATCC 13076; S. enterica ATCC 13076, MCR-negative
  MIC of colistin in the absence of melatonin: 0.125 µg/mL
E. coli G92 (mcr-1)
  MIC of colistin in the presence of sub-MIC of melatonin: 0.5 µg/mL
E. coli G92 (mcr-1); MCR-positive
  MIC of colistin in the absence of melatonin: 4 µg/mL
E. coli CP131 (mcr-3)
  MIC of colistin in the presence of sub-MIC of melatonin: 0.5 µg/mL
E. coli CP131 (mcr-3); MCR-positive
  MIC of colistin in the absence of melatonin: 4 µg/mL
[10]
  MIC of colistin in the presence of sub-MIC of melatonin: 0.5 µg/mL
[10]; MCR-positive
  MIC of colistin in the absence of melatonin: 4 µg/mL
E. coli B2 (mcr-1) [2]
  killing of exponentially growing or stationary E. coli B2 by monotreatment: neither melatonin nor colistin monotreatment killed
E. coli B2 (mcr-1) [3]
  survival of mice after lethal infection: did not prevent a lethal infection
E. coli MG1655 (ΔkatE)
  MIC of colistin in the presence of sub-MIC of melatonin: 0.0078 µg/mL
